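Protocol summary: plate cells (96-well), add compound at 5 concentrations, incubate 48 h, interpolate endpoints linearly. The concentration for 50% growth inhibition is given as GI50.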 Active and inactive are the calls of the source. Cut-off read from the data, not from the text of the source: active = GI50 up to about 1.1 µM and inactive = higher.
What was measured:
Assay in all cases: NCI anticancer screen, dose series, 48 h
[1] = tested on: HCC 2998
[2] = tested on: A549
[3] = tested on: CAKI-1
[4] = tested on: SW-620
[5] = tested on: Malme-3M
[6] = tested on: NCI-H522
[7] = tested on: LOX IMVI
[8] = tested on: TK-10
[9] = tested on: SNB-19
[10] = tested on: Hs-578T
[11] = tested on: 786-0
[12] = tested on: OVCAR-3
[13] = tested on: RPMI-8226
[14] = tested on: T47D
[15] = tested on: UACC-62
[16] = tested on: UO-31
[17] = tested on: SK-MEL-2
[18] = tested on: HT-29
[19] = tested on: PC-3
[20] = tested on: HOP-62

Measured: GI50

C[C@@H]1CC[C@]2(C(=O)O)CC[C@]3(C)C(=CC[C@@H]4[C@@]5(C)CC[C@H](O)C(C)(C)[C@@H]5CC[C@]43C)[C@@H]2[C@]1(C)O [POMOLIC ACID]
inactive: [1] 15 µM | [2] 17.2 µM | [3] 14 µM | [4] 21.9 µM | [5] 12.3 µM | [6] 13.9 µM | [7] 15.7 µM | [8] 14.5 µM | [9] 15.7 µM | [10] 3.52 µM | [11] 5.38 µM | [12] 18.6 µM | [13] 16.3 µM | [14] 16.4 µM | [15] 3.49 µM | [16] 11.3 µM | [17] 17.1 µM

CCC(=N\NC(N)=S)/C(C)=N/O
inactive: [18] > 100 µM | [1] > 100 µM | [19] > 100 µM | [2] > 100 µM | [3] > 100 µM | [4] > 100 µM | [5] > 100 µM | [7] > 100 µM | [8] > 100 µM | [9] > 100 µM | [10] > 100 µM | [11] > 100 µM | [12] > 100 µM | [13] > 100 µM | [20] > 100 µM | [14] > 100 µM | [15] > 100 µM | [16] 62.1 µM | [17] > 100 µM

CC1=CC2=C(C#N)C(=O)OC2(C)C(c2ccccc2)C1 (stereo not given)
inactive: [18] > 100 µM | [19] 68.5 µM | [2] > 100 µM | [4] > 100 µM | [5] > 100 µM | [6] > 100 µM | [7] > 100 µM | [8] > 100 µM | [9] > 100 µM | [10] > 100 µM | [11] > 100 µM | [12] > 100 µM | [13] 77.8 µM | [20] > 100 µM | [15] > 100 µM | [16] > 100 µM | [17] > 100 µM

Cc1ccc(S(=O)(=O)[C@@H](Cl)[C@H]2N=C(Cl)NN=C2c2ccccc2)cc1
inactive: [18] 33.5 µM | [1] 33.8 µM | [19] 16.7 µM | [2] 34.1 µM | [3] 41.9 µM | [4] 17.2 µM | [5] 20.7 µM | [6] 15.9 µM | [7] 19.1 µM | [8] 41.8 µM | [9] 37.8 µM | [11] 26.4 µM | [12] 14.7 µM | [13] 27.6 µM | [20] 20 µM | [14] 28.8 µM | [15] 15.1 µM | [16] 18.1 µM | [17] 14.8 µM

Cc1sc2nc3n(c(=O)c2c1C)N=CN(c1ccccc1)C3
inactive: [18] > 100 µM | [1] 60.5 µM | [19] > 100 µM | [2] > 100 µM | [3] 36 µM | [4] > 100 µM | [5] 32 µM | [6] 38.5 µM | [7] > 100 µM | [8] > 100 µM | [9] 35.5 µM | [11] 15.8 µM | [12] 19.4 µM | [13] > 100 µM | [20] 20.4 µM | [14] 79.8 µM | [15] > 100 µM | [16] > 100 µM | [17] > 100 µM

Cc1cc2cc3ccccc3cc2c(=O)[nH]1
inactive: [18] > 10 µM | [19] > 10 µM | [2] > 10 µM | [4] > 10 µM | [6] > 10 µM | [7] > 10 µM | [8] > 10 µM | [9] > 10 µM | [10] > 10 µM | [11] > 10 µM | [12] > 10 µM | [15] > 10 µM | [16] > 10 µM

COc1c2c(cc3c1C(=O)c1c(O)cccc1C3=O)CC(O)CC2 (stereo not given)
inactive: [18] > 100 µM | [1] > 100 µM | [19] 67.9 µM | [2] > 100 µM | [3] > 100 µM | [4] > 100 µM | [5] 49.8 µM | [7] > 100 µM | [8] 50.5 µM | [9] 19.7 µM | [10] 26.7 µM | [11] 25.6 µM | [12] > 100 µM | [20] 19.3 µM | [14] 7.18 µM | [15] 28.5 µM | [16] 56.9 µM | [17] > 100 µM

CCCN1CC=C(c2cc(C(=O)OCC)[nH]c2-c2cc(C)no2)C1=O
inactive: [18] > 100 µM | [1] > 100 µM | [19] > 100 µM | [2] > 100 µM | [3] > 100 µM | [4] > 100 µM | [5] > 100 µM | [7] > 100 µM | [9] > 100 µM | [10] > 100 µM | [11] > 100 µM | [12] > 100 µM | [13] 75 µM | [20] > 100 µM | [14] > 100 µM | [15] > 100 µM | [16] 89.7 µM | [17] > 100 µM

C=CCN1CC2CN=NC2(C#N)C1 (stereo not given)
inactive: [18] > 100 µM | [1] > 100 µM | [19] > 100 µM | [2] > 100 µM | [3] > 100 µM | [4] > 100 µM | [5] > 100 µM | [6] > 100 µM | [7] > 100 µM | [8] > 100 µM | [9] > 100 µM | [11] > 100 µM | [12] > 100 µM | [20] > 100 µM | [14] > 100 µM | [15] > 100 µM | [16] > 100 µM | [17] > 100 µM

S=C(S)NCNC(=S)S
inactive: [18] > 100 µM | [1] > 100 µM | [19] > 100 µM | [2] > 100 µM | [3] > 100 µM | [4] > 100 µM | [5] > 100 µM | [7] > 100 µM | [8] > 100 µM | [9] > 100 µM | [10] > 100 µM | [11] > 100 µM | [12] > 100 µM | [13] > 100 µM | [20] > 100 µM | [14] > 100 µM | [15] > 100 µM | [16] > 100 µM

Cc1nc(N)nc(S)c1CCC(=O)O
inactive: [18] > 100 µM | [1] > 100 µM | [19] > 100 µM | [2] > 100 µM | [3] > 100 µM | [4] > 100 µM | [5] > 100 µM | [6] > 100 µM | [7] > 100 µM | [8] > 100 µM | [9] > 100 µM | [10] > 100 µM | [11] > 100 µM | [12] > 100 µM | [13] > 100 µM | [20] > 100 µM | [15] > 100 µM | [16] > 100 µM | [17] > 100 µM

Source: ChEMBL document CHEMBL1201862, “PubChem BioAssay data set” (2004)
